Earlier results on two molecules are cited in US5512561A, “Aryl substituted dibenzoxazepine compounds, pharmaceutical compositions and methods of use” (G. D. Searle & Co., priority 1995, dated 1996).

The series relates to isolated smooth muscle preparations. As to conditions: cited from earlier work.

The structures appear in SMILES notation.

`O=C(Cc1ccccc1)NNC(=O)N1Cc2ccccc2Oc2ccc(Cl)cc21` [SC-18637]: the “inhibition of the stimulant actions of prostaglandins on isolated smooth muscle preparations” value was “inhibit the stimulant actions of prostaglandins”.

For `CC(=O)NNC(=O)N1Cc2ccccc2Oc2ccc(Cl)cc21` [SC-19220], the “inhibition of the stimulant actions of prostaglandins on isolated smooth muscle preparations” value is reported as “inhibit the stimulant actions of prostaglandins”.
